# Where “and” joins values, the source holds several entries; their conditions need not be identical. Identical values can stand only once. Entries after “also recorded” stand apart in the source; their conditions may differ. Like-named read-outs stand apart in the source and are kept apart here.
# Tests used:
# [1] = set-up: method as in Wodtke et al. [2021]; settings: in vitro; ref Wodtke et al. [2021]; cited from earlier work
# Liver microsome assay = type: in vitro ADME, murine; settings: MLM, without prior oxidation (data not shown)
# [2] = test system: MeWo tumor xenograft (TGase 2 −); assay: Ex vivo biodistribution in tumor-bearing mice (MeWo); set-up: species or system mice (Rj:NMRI-Foxn1 nu/nu)
# Protocol: (§1) For biodistribution studies in tumor-bearing mice, a number of 5 × 10^6 A375-hS100A4 or MeWo cells were resuspended in 100 µL PBS and injected subcutaneously into nude mice (Rj:NMRI-Foxn1 nu/nu). Tumor growth was monitored three times per week using caliper measurements. The injection of [^18F]7b and subsequent steps were performed as described above.
# [3] = Metabolic stability and arterial blood clearance in a normal Wistar rat; type: in vivo; settings: for c02: i.v. 5.27 nmol; for half-life / Vd / clearance / k el: male, iv, 5.27 nmol; for half-life / Vd / clearance: Wistar, rat; for clearance: plasma
# Protocol: The following procedure was performed as recently published (Laube et al. [2020]). For assessing the in vivo stability, [^18F]7b (69.8 MBq corresponding to 5.27 nmol in 0.5 mL 0.9% NaCl with 5% ethanol (v/v)) was injected i.v. into a male Wistar rat (body weight 170 g) under desflurane anesthesia (10% desflurane in 30% oxygen/air, v/v). Using a catheter, blood samples from femoral artery were taken at 1, 3, 5, 10, 20, 30, 60, and 120 min p.i. The resulting loss of volume was compensated by i.v. injection of E153. Plasma was separated by centrifugation (3 min; 13,000 × g) followed by precipitation of plasma proteins with ice-cold Supersol (EtOH 20% (v/v), Triton X-100 0.5% (v/v), EDTA 5 mM, o-Phenanthroline 0.5 mM, Saponin 0.1% (w/v)). Clear supernatant separated by a second centrifugation step (3 min; 13,000 × g) was analyzed by radio-HPLC (Hewlett Packard Series 1100 equipped with a γ-detector (Raytest Ramona), Zorbax SB-C18, 300 Å, 4 μm, 250 × 9.4 mm (Agilent), eluent A, 0.1% (v/v) trifluoroacetic acid in H2O; eluent B, 0.1% (v/v) trifluoroacetic acid in CH3CN). Gradient elution was performed using 95% eluent A for 5 min, 95% eluent A to 95% eluent B in 10 min, 95% eluent B for 5 min, and 95% eluent B to 95% eluent A in 5 min, 3 mL/min, 50 °C. The clear supernatant was also analyzed by radio-TLC using reversed-phase TLC plates (ALUGRAM RP-18W/UV254 from Macherey–Nagel, Düren, Germany) with a mobile phase of 50% CH3CN in water containing 0.1% trifluoroacetic acid. For total protein precipitation at 5 and 60 min p.i., plasma samples were diluted with twice the volume of 15% trichloroacetic acid (TCA) in water instead of Supersol. Clear supernatant was separated by centrifugation (3 min; 13,000 × g) and analyzed as described above.
# The measured activity concentrations (decay-corrected) in the blood samples of the Wistar rat were transformed into concentrations of 7b by taking the molar activity of [^18F]7b into account. These values were corrected by the fractions of intact [^18F]7b as analyzed by radio-HPLC or radio-TLC. These corrected concentrations were plotted against the time and analysis was performed by nonlinear regression according to two-phase decay as implemented in GraphPad Prism (Plateau was set to 0, Fig. 3B). However, for derivation of pharmacokinetic parameters, the corrected concentrations were converted to their log values and plotted against the time (semi-logarithmic plot, see inset in Fig. 3B). By linear regression of the data from 3 to 30 min, values for c02 (putative concentration of 7b at the beginning of the elimination phase) and kel (elimination rate constant) were derived. C02 was obtained as antilog of the intercept at the y-axis and kel represents the slope of the line. By knowing these two parameters as well as the applied dose (D = 5.27 nmol), the apparent volume of distribution (VD) and the plasma clearance (CL) was calculated using equations 7 and 8 (Freissmuth et al. [2016]).7 VD=D/c02 8 CL=kβ×VD
# [4] = set-up: method as in Wodtke et al. [2021]; settings: ref Wodtke et al. [2021]; cited from earlier work
# [5] = Stability in blood in vitro; type: in vitro ADME; settings: incubation of the radiotracer in blood in vitro
# [6] = test system: A375-hS100A4 tumor xenograft (TGase 2 +); assay: Ex vivo biodistribution in tumor-bearing mice (A375-hS100A4); set-up: species or system mice (Rj:NMRI-Foxn1 nu/nu)
# Protocol: as §1
# [7] = whole blood (arterial), radio-HPLC
structure (smiles),measurement,setting,value
C=CC(=O)NCCCCC(NC(=O)Cc1ccccc1)C(=O)N1CCN(c2cccc([18F])n2)CC1 (stereo not shown) [[^18F]7b],GSH reactivity,[1],low
same,susceptibility to glucuronidation,Liver microsome assay,not susceptible to glucuronidation
same,tumor/muscle ratio,[2],1.0
same,fraction of unmodified [^18F]7b in both blood components,"[3]; 20 min p.i., plasma and erythrocytes",> 40%
same,residual intact [^18F]7b in intestinal content,"[3]; 120 min (2 h) p.i., radio-HPLC",7%
same,residual intact [^18F]7b in urine,"[3]; 120 min (2 h) p.i., radio-HPLC",8%
same,binding of ^18F-activity to plasma proteins,"[3]; ex vivo plasma, protein precipitation",not protein-bound; also recorded: quite low
same,c02,[3]; intact fraction by radio-HPLC,22.4 nM
same,c02,[3]; intact fraction by radio-TLC,18.4 nM
same,terminal t1/2 (elimination half-life),"[3]; i.v., radio-HPLC",17 min
same,half-life,"[3]; arterial blood, i.v., radio-TLC, read-out: terminal t1/2",16 min
same,Vd,"[3]; arterial blood, radio-HPLC",0.235 L
same,Vd,"[3]; arterial blood, radio-TLC",0.287 L and 1.69 L/kg
same,clearance,"[3]; i.v., radio-HPLC data, read-out: plasma clearance (plasma CL)",56 mL/min/kg
same,clearance,"[3]; i.v., radio-HPLC, read-out: Plasma CL",9.5 mL/min and 56 mL/min/kg
same,clearance,"[3]; i.v., radio-TLC, read-out: Plasma CL",12.6 mL/min and 74 mL/min/kg
same,half-life,"[3]; whole blood (arterial), i.v., radio-HPLC, read-out: terminal t1/2 (elimination half-life)",17.2 min
same,Vd,[3]; [7],1.38 L/kg
same,k el,"[3]; arterial blood, radio-TLC",0.000733 s⁻¹
same,k el,[3]; [7],0.000667 s⁻¹
same,^18F-activity in blood bound to erythrocytes,[3]; stable from 10 to 120 min p.i.,≈ 30%
same,^18F-activity in blood located in the plasma fraction,[3]; stable from 10 to 120 min p.i.,≈ 60%
same,logD7.4,[4],2.1
same,[^18F]7b remaining intact,[5],≥ 90%
same,tumor/muscle ratio,[6],1.4

# Source: publication PMC10761660, “Preclinical evaluation of an ^18F-labeled N^ε-acryloyllysine piperazide for covalent targeting of transglutaminase 2” (EJNMMI Radiopharmacy and Chemistry, 2024)
